Activity calls are given as the source filed them.

Assay [1] has as its target Multidrug resistance protein CDR2 (Candida albicans (strain SC5314 / ATCC MYA-2876) (Yeast), UniProt P78595). Put plainly: CaCDR2 efflux pump inhibitors in yeast, dose response, S. cerevisiae AD1-8u, singleplex, Cherry Pick1 hits (AID 588604). It is filed as functional.
The subject of assay [2] is HEK293. Put plainly: cells. Conditions: Homo sapiens.
Assay [3] is described as follows: Luminescence Cell-Based Dose Confirmation HTS to Identify Inhibitors of Platelet Dense Granule Release. [Related pubchem assays: 1663 (Primary HTS), 1678 (Summary of Project)]. Format: functional.
Assay [4] deals with Luciferin 4-monooxygenase (Photinus pyralis, UniProt P08659). Briefly: firefly luciferase enzyme inhibitors, dose response, biochemical, luminescence (AID 1891).
The target of assay [5] is T1, High affinity choline transporter 1 (Homo sapiens, UniProt Q9GZV3).
T1 sequence (Q9GZV3 whole entry): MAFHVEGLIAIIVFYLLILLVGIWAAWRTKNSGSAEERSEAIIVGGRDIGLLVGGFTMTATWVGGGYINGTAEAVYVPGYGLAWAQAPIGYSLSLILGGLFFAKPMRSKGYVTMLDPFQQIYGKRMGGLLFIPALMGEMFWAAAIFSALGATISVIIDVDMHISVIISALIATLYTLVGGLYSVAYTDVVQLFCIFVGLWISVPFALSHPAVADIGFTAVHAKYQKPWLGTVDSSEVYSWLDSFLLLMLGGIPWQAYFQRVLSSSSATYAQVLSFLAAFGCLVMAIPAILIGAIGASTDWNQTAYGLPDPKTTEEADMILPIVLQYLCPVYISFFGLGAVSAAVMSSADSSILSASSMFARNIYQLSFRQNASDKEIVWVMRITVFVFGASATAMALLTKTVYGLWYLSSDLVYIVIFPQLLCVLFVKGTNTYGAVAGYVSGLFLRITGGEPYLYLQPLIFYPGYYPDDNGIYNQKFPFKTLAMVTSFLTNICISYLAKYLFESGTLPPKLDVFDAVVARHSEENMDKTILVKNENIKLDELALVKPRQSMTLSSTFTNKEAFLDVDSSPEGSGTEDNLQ
Put plainly: CHT inhibitors, dose response, cell-based, 5-point CRC, membrane potential dye (AID 504840). Format: functional.

In assay [6] the test system is HEK293. Put plainly: cells. Conditions: Homo sapiens. The source holds these as a separate data set.
For assay [7], the target named is T1, High affinity choline transporter 1. Briefly: CHT inhibitors, dose response, cell-based, 10-point CRC, membrane potential dye (AID 588401).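 Further: membrane potential dye fluorescence of choline-evoked depolarization via CHT.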 It is filed as functional.

Multidrug resistance protein CDR2, sequence (P78595 whole entry): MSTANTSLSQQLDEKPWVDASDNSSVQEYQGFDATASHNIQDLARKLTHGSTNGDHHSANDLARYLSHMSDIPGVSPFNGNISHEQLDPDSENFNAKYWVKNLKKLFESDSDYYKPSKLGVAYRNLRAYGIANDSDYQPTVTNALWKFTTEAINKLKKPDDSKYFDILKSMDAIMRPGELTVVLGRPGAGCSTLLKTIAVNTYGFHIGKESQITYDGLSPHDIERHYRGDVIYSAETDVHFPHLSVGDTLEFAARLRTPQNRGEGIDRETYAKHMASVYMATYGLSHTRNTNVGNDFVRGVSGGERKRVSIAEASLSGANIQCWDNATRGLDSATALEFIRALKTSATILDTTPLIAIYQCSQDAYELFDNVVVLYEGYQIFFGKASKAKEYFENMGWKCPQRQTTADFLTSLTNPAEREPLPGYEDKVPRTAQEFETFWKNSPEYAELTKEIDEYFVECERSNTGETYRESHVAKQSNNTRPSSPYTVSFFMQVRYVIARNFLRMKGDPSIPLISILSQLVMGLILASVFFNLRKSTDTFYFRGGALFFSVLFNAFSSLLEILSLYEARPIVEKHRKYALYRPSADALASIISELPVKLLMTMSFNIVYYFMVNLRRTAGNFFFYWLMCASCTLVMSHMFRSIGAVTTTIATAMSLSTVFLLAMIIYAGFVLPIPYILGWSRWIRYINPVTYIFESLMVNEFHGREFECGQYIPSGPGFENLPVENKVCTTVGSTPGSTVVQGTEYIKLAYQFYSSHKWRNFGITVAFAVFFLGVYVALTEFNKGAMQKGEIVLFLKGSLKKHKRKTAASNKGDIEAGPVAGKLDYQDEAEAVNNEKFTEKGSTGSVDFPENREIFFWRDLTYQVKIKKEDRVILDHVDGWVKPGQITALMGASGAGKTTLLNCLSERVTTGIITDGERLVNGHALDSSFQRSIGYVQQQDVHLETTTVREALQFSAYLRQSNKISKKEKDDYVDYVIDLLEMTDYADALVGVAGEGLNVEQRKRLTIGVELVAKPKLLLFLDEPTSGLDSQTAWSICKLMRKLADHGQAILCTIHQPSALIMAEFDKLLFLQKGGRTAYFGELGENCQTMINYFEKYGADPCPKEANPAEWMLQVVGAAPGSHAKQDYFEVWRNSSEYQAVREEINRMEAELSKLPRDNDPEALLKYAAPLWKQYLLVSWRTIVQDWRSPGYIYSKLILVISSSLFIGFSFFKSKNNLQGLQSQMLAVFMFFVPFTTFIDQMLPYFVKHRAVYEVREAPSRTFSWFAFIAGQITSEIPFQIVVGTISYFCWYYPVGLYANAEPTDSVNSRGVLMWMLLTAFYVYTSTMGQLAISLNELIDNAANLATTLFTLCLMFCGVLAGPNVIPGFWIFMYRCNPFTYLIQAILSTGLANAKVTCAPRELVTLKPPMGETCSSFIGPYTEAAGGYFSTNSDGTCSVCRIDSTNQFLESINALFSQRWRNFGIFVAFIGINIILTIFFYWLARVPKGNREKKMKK
Luciferin 4-monooxygenase, sequence (P08659 whole entry): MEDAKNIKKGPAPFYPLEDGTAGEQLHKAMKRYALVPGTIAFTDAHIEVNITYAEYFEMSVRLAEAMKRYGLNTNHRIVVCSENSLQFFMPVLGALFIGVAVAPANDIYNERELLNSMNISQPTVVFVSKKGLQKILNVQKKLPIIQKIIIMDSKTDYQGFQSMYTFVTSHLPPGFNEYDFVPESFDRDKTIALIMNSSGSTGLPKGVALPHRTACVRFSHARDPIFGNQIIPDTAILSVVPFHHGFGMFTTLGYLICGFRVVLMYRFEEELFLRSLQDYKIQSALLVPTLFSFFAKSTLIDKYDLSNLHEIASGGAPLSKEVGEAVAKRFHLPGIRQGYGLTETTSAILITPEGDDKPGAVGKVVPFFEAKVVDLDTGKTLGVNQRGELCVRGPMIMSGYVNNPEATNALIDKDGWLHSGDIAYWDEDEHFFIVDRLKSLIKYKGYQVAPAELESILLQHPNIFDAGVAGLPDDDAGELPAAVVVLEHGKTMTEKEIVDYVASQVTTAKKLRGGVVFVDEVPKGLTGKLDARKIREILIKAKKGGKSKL

For the molecule `O=C(Cn1c(COc2ccccc2)nc2ccccc21)Nc1cc(Cl)c(Cl)cc1Cl`, in assay [1], the concentration giving a half-maximal response (EC50) is 15.7 µM (active).

With `C=C[C@@]1(C)CC(=O)[C@]2(O)[C@@]3(C)[C@@H](O)CCC(C)(C)[C@@H]3[C@H](OC(C)=O)[C@H](O)[C@@]2(C)O1`, the EC50 with HEK293 [2] is > 59.7 µM (inactive); in assay [3], 4.26 µM (active); in assay [4] it was > 112 µM (not active); in the assay on HEK293 [6], > 59.7 µM (inactive). Further, the figures for the IC50 in assay [5] and in assay [7] were 1.52 µM (active) and 815 nM (active), respectively.

The record behind these values is ChEMBL document CHEMBL1201862, “PubChem BioAssay data set” (2004).
